Measured values reported in patent US8685947B2, “Compositions and methods for loop diuretics with consistent bioavailability” (Brown University, priority 2010, dated 2014).

Test system: albino, male, Sprague-Dawley subjects
Experiment: Diuretic bioactivity analysis: urine output in metabolic cages after oral gelatin capsule dosing
Assay type: in vivo, rats
Settings: 10 mg/kg oral
Experimental: Subject rats were weighed at the start of each example. Each formulation was prepared and then loaded into size 9 gelatin capsules using a gelatin capsule filler (Torpac, Fairfield, N.J.). Each gelatin capsule was weighed on a microbalance (AD-4 Autobalance, Perkin Elmer, Waltham, Mass.) prior to and after drug loading to prepare oral doses of 2.5 mg, 5 mg, or 10 mg of drug per kg of body mass within 0.5 mg of dose mass.
Each subject was anesthetized in an induction chamber with 3.5% isoflurane (Novation, Irving, Tex.) for 5-10 minutes. Once anesthetized, the subject was removed from the induction chamber and dosed with a size 9 gelatin capsule containing one of the furosemide formulations using the gelatin capsule dosing syringe (Torpac, Fairfield, N.J.). As a negative control the same subjects were administered empty gelatin capsules without furosemide to quantify the basal urine mass output for comparison. Upon recovery from anesthesia, each subject was then transferred to a metabolic cage for urine collection over a 10 hour period.
Twelve albino, male, Sprague-Dawley subjects (450 g to 750 g) were used as subjects in the bioactivity analysis example. Subjects were housed in standard bedded cages in accordance with NIH and IACUC guidelines. Immediately after oral gavage with a furosemide formulation, subjects were housed individually in a metabolic cage rack (Unifab Cages, Kalamazoo, Mich.) as shown in FIG. 2. Subjects were given access to food and water ad libitum throughout the study. Metabolic cages were equipped with wire grating floors that allowed for free passage and collection of excreted material during the period of containing the subject. Feces were collected beneath the large opening wire grating floor by smaller opening wire mesh screen, and urine continued through the screen into a funnel for collection into pre-weighed glass scintillation vials (Cole-Parmer, Vernon Hills, Ill.). At two hour intervals after dosing, the glass scintillation vials were weighed (Mettler Toledo, Columbus, Ohio) to quantify urine output as a function of time and were then replaced. Increased urine output above baseline values was used as a non-invasive measure of diuretic activity of the various furosemide formulations examined. After each 10 hour study, subjects were housed in bedded cages for a recovery period of at least 48 hours between metabolic cage studies.
Each dose was administered to three subjects and the average urine mass produced in the two hour time periods was determined and was compared to the average output of the same subjects that received a sham dosage without any furosemide, referred to in the figures as the basal output.

NS(=O)(=O)c1cc(C(=O)O)c(NCc2ccco2)cc1Cl [stock furosemide, Furosemide] was tested, and the “total urine output at hour 10 relative to the micronized dose” value (N=3, not significantly different) was 1.02 fold, the “mean urine mass output two hours after dosing relative to basal urine output” value (N=3, p<0.01) was 12.2 fold and the “mean urine mass output two hours after dosing relative to equivalent dose of micronized furosemide” value (N=3, p<0.01) was 8.6 fold. The “urine output two hours after oral dosing compared to micronized furosemide and basal control” value (N=3, p<0.01) was “statistically significant greater urine output”.
